Assay results taken from ChEMBL document CHEMBL3611990, “Identification of Purines and 7-Deazapurines as Potent and Selective Type I Inhibitors of Troponin I-Interacting Kinase (TNNI3K)” (J Med Chem, 2015).

How the values were obtained:
[1] = biological target: Serine/threonine-protein kinase B-raf (Homo sapiens, UniProt P15056, V600E); assay: Inhibition of His6-tagged full length BRAF V600E mutant (2 to 766 residues) (unknown origin) expressed in Baculovirus expression system by BRAMA method
[2] = biological target: T1, Serine/threonine-protein kinase TNNI3K (Homo sapiens, UniProt Q59H18); assay: Displacement of 5-({[2-({[3-({4-[(5-hydroxy-2-methylphenyl)amino]-2-pyrimidinyl}amino)phenyl]carbonyl}amino)-ethyl]amino}carbonyl)-2-(6-hydroxy-3-oxo-3H-xanthen-9-yl)benzoic acid from His6-MBP-TEV-full length human TNNI3K expressed in Baculovirus expression system after 60 mins by fluorescence polarization assay
T1 sequence (Q59H18 whole entry): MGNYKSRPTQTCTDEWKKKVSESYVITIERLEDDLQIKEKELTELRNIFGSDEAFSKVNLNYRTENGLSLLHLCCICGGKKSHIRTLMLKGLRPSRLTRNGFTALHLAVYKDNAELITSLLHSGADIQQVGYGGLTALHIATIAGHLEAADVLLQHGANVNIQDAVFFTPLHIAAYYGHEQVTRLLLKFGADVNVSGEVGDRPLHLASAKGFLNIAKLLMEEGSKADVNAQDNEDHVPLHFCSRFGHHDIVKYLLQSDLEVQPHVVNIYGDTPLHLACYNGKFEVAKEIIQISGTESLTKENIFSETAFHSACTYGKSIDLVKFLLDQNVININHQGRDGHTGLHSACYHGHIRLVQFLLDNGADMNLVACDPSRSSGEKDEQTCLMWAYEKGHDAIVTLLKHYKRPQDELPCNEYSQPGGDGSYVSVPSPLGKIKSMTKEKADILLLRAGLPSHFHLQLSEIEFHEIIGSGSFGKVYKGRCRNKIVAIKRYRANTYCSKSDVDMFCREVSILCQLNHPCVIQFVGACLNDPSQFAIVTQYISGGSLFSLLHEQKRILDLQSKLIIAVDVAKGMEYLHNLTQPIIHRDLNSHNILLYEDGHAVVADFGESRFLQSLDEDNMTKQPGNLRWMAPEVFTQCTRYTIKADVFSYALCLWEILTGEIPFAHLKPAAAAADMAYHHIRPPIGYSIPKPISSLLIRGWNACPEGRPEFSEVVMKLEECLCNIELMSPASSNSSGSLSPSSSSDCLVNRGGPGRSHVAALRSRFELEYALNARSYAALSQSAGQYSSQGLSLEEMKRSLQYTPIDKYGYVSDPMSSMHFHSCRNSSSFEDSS

[3] = biological target: T1, Serine/threonine-protein kinase TNNI3K; assay: Inhibition of human myc-tagged TNNI3K autophosphorylation overexpressed in HEKMSRII cells preincubated for 30 mins followed by pervanadate solution addition measured after 20 mins by DELFIA; assay type: cell-based
[4] = test system: Rattus norvegicus; assay: Dose normalized AUC in po dosed Sprague-Dawley rat by LC/MS/MS analysis; assay type: ADME, organism-based; settings: in vivo
[5] = Plasma clearance in Sprague-Dawley rat at 1 mg/kg, iv by LC/MS/MS analysis; assay type: ADME, organism-based
[6] = Oral bioavailability in Sprague-Dawley rat by LC/MS/MS analysis; assay type: ADME, organism-based; settings: in vivo

Chain of Serine/threonine-protein kinase B-raf (P15056 2-766 V600E limits assumed): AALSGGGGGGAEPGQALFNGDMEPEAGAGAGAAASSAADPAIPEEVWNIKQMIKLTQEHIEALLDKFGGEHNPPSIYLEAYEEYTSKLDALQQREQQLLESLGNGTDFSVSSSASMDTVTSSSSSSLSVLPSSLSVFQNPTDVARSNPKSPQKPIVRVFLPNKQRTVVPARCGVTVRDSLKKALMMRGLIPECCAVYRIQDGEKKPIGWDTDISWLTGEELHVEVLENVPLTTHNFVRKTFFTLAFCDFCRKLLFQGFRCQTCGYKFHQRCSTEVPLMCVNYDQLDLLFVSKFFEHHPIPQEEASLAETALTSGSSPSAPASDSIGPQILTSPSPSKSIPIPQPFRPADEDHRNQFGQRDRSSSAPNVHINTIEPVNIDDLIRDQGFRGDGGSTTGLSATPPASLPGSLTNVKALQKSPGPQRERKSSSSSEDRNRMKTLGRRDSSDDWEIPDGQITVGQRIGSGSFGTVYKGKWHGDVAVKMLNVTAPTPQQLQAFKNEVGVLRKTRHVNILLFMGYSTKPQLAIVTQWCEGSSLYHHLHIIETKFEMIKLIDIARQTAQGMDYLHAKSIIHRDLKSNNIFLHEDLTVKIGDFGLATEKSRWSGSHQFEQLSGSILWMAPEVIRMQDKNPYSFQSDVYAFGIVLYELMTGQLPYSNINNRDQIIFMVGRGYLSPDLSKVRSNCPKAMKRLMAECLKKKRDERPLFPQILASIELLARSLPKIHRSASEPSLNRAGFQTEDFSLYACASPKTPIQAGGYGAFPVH

Structure (SMILES)	IC50 [1]	IC50 [2]	IC50 [3]	AUC/dose [4]	clearance [5]	bioavailability [6]
CNS(=O)(=O)c1ccc(N(C)C)c(Nc2ncnc3[nH]c(-c4cccc(C(F)(F)F)c4)cc23)c1	0.6 nM	13 nM	16 nM			
CNS(=O)(=O)c1cccc(Nc2ncnc3[nH]c(-c4ccncc4)cc23)c1	1 nM	20 nM		0 kg·h/L		
CNS(=O)(=O)c1cccc(Nc2ncnc3[nH]c(-c4ccccc4C)cc23)c1	6 nM	13 nM				
CNS(=O)(=O)c1ccc(C)c(Nc2ncnc3[nH]ccc23)c1		630 nM				
CNS(=O)(=O)c1ccc(N2CCOCC2)c(Nc2ncnc3[nH]c(Br)cc23)c1	8 nM	126 nM	398 nM	0.09 kg·h/L		
CNS(=O)(=O)c1ccc(N2CCOCC2)c(Nc2ncnc3[nH]cc(Br)c23)c1	0.5 nM	< 10 nM	6.3 nM	0.32 kg·h/L		
CNS(=O)(=O)c1cncc(Nc2ncnc3[nH]ccc23)c1		250 nM				
CNS(=O)(=O)c1cccc(Nc2ncnc3[nH]cc(-c4ccccc4Cl)c23)c1	10 nM	40 nM				
CNS(=O)(=O)c1cccc(N(C)c2ncnc3[nH]ccc23)c1		5000 nM				
CNS(=O)(=O)c1cccc(Nc2ncnc3[nH]c4ccccc4c23)c1	40 nM	100 nM		0.03 kg·h/L		
CCS(=O)(=O)c1cccc(Nc2ncnc3[nH]cnc23)c1		6300 nM				
CNS(=O)(=O)c1cccc(Nc2ncnc3[nH]cc(-c4ccc(CN)cc4)c23)c1	6 nM	32 nM		0 kg·h/L		
CNS(=O)(=O)c1cccc(Nc2ncnc3[nH]c(-c4cccc(C(F)(F)F)c4)cc23)c1	6 nM	63 nM		0.14 kg·h/L		
CNS(=O)(=O)c1cccc(Nc2ccnc3[nH]ccc23)c1		8000 nM				
CCNS(=O)(=O)c1cccc(Nc2ncnc3[nH]cnc23)c1		2000 nM				
CNS(=O)(=O)c1ccc(N2CCOCC2)c(Nc2ncnc3[nH]cc(C)c23)c1	1.3 nM	13 nM	7.9 nM			
CNS(=O)(=O)c1cccc(Nc2ncnc3[nH]c(C(=O)O)cc23)c1	40 nM	160 nM				
NS(=O)(=O)c1cccc(Nc2ncnc3[nH]cnc23)c1		40000 nM				
CNS(=O)(=O)c1ccc(C)c(Nc2ncnc3[nH]cnc23)c1		500 nM				
CNS(=O)(=O)c1cccc(Nc2ncnc3[nH]cc(CC(C)C)c23)c1	40 nM	126 nM				
CN(C)S(=O)(=O)c1cccc(Nc2ncnc3[nH]cnc23)c1		8000 nM				
CNS(=O)(=O)c1cc(Nc2ncnc3[nH]cnc23)ccc1C		13000 nM				
CNS(=O)(=O)c1cccc(Nc2ncnc3[nH]cc(-c4ccccc4)c23)c1	4 nM	40 nM		0.05 kg·h/L	93 mL/min/kg	
CNS(=O)(=O)c1cccc(Nc2ncnc3[nH]c(Br)cc23)c1	16 nM	50 nM		0.26 kg·h/L		
CNS(=O)(=O)c1cccc(Nc2ncnc3[nH]c(-c4ccccc4)cc23)c1	1 nM	25 nM		0.01 kg·h/L		
CNS(=O)(=O)c1cccc(Nc2nc(Cl)nc3[nH]cnc23)c1		16000 nM				

Structure (SMILES)	IC50 [1]	IC50 [2]	IC50 [3]	AUC/dose [4]	clearance [5]	bioavailability [6]
CNS(=O)(=O)c1cccc(Nc2ncnc3c2ccn3C)c1		> 25000 nM				
CNS(=O)(=O)c1ccc(N2CCOCC2)c(Nc2ncnc3[nH]ccc23)c1	8 nM	40 nM	100 nM	0.15 kg·h/L	39 mL/min/kg	
O=S(=O)(NO)c1cccc(Nc2ncnc3[nH]cnc23)c1		20000 nM				
CNS(=O)(=O)c1cccc(Nc2ncnc3[nH]cc(-c4ccc(C(=O)O)cc4)c23)c1	16 nM	100 nM		0 kg·h/L		
CNS(=O)(=O)c1cccc(Nc2nc(N)nc3[nH]cnc23)c1		8000 nM				
CNS(=O)(=O)c1cccc(Nc2ncnc3[nH]c(-c4cccc(C)c4)cc23)c1	1 nM	13 nM		0.01 kg·h/L		
CNS(=O)(=O)c1ccc(Cl)c(Nc2ncnc3[nH]ccc23)c1	32 nM	20 nM				
CNS(=O)(=O)c1cccc(Nc2ncnc3[nH]cc(-c4ccncc4)c23)c1	32 nM	100 nM		0 kg·h/L		
CNS(=O)(=O)c1cccc(Nc2ncnc3c2CC(=O)N3)c1		400 nM				
CNS(=O)(=O)c1cccc(Nc2ncnc3[nH]ncc23)c1		50 nM			72 mL/min/kg	5%
CNS(=O)(=O)c1cccc(Nc2ncnc3[nH]c(-c4ccc(O)cc4)cc23)c1	1 nM	13 nM				
CNS(=O)(=O)c1ccc(N(C)C)c(Nc2ncnc3[nH]cc(Br)c23)c1	0.2 nM	< 10 nM	0.7 nM	0.04 kg·h/L		
CNS(=O)(=O)c1cccc(Oc2ncnc3[nH]ccc23)c1		16000 nM				
CNS(=O)(=O)c1ccc(N(C)C)c(Nc2ncnc3[nH]cc(C)c23)c1	0.5 nM	< 10 nM	1.6 nM			
CNS(=O)(=O)c1cccc(Nc2ncnc3[nH]cc(-c4ccc(OC)cc4)c23)c1	4 nM	50 nM		0.06 kg·h/L		
CNS(=O)(=O)c1cccc(Nc2ncnc3c2ncn3C)c1		> 25000 nM				
CNS(=O)(=O)c1cccc(Nc2ncnc3[nH]cc(F)c23)c1	79 nM	126 nM		0.28 kg·h/L		
CNS(=O)(=O)c1ccc(N(C)C)c(Nc2ncnc3[nH]c(Br)cc23)c1	6.3 nM	40 nM	40 nM	0.14 kg·h/L		
CNS(=O)(=O)c1cccc(Nc2ncnc3[nH]cc(-c4ccc(Cl)cc4)c23)c1	4 nM	100 nM		0.2 kg·h/L	65 mL/min/kg	
CNS(=O)(=O)c1cccc(Nc2ncnc3[nH]cc(C(C)C)c23)c1	79 nM	126 nM		0.06 kg·h/L		
CNS(=O)(=O)c1cccc(Nc2nc(F)nc3[nH]cnc23)c1		3200 nM				
CNS(=O)(=O)c1cccc(Nc2ncnc3[nH]c(-c4ccc(C)cc4)cc23)c1	1 nM	13 nM				
CNS(=O)(=O)c1cccc(Nc2ncnc3[nH]cc(-c4cccc(Cl)c4)c23)c1	1 nM	63 nM				
CNS(=O)(=O)c1ccc(N2CCOCC2)c(Nc2ncnc3[nH]c(-c4cccc(C(F)(F)F)c4)cc23)c1	1.3 nM	16 nM	10 nM			
CNc1ccc(S(=O)(=O)NC)cc1Nc1ncnc2[nH]ccc12	1000 nM	6300 nM				
CNS(=O)(=O)c1cccc(Nc2ncnc3[nH]cc(C)c23)c1	63 nM	40 nM		0.18 kg·h/L		
